This passage reports EC50 results from patent US8183263B2 (priority 2007, dated 2012).

Some results are limits rather than exact numbers.

This assay relates to HCV replicon. As to the kind of experiment: HCV replicon replication assay (NPT level by captured ELISA). The assay is classed as cell-based. The note with it: Hepatitis C virus, 72 h; Huh-7 HCV replicon-containing cells, three days incubation; read-out: Activity (inhibition of HCV replicon replication). As to the method: Compounds claimed herein are tested for the ability to inhibit viral replication of the Hepatitis C replicon in cultured cells in which the HCV replicon construct has been incorporated. The HCV replicon system was described by Bartenschlager, et. al (Science, 285, pp. 110-113 (1999)). The replicon system is predictive of in vivo anti-HCV activity; compounds that are active in humans uniformly evidence activity in the replicon assay.
In this assay HCV replicon containing cells are treated with different concentrations of the test compound to ascertain the ability of the test compound to suppress replication of the HCV replicon. As a positive control, HCV replicon-containing cells are treated with different concentrations of interferon alpha, a known inhibitor of HCV replication. The replicon assay system includes Neomycin Phosphotransferase (NPT) as a component of the replicon itself in order to detect the transcription of replicon gene products in the host cell. Cells in which the HCV replicon is actively replicating have high levels of NPT; the level of NPT is proportional to HCV replication. […] The NPT level of each sample is measured using a captured ELISA.
A protocol for testing compounds for the ability to inhibit viral replication of the Hepatitis C replicon cultured cells in which the replicon construct has been incorporated, follows.
The HCV replicon contains, 5′-3′, the HCV-IRES, the neomycin phosphotransferase (neo) gene, the IRES of encephalomyocarditis virus, which directs translation of HCV sequences NS3 to NS5B, and the 3′-NTR. The sequence of the HCV replicon has been deposited in GenBank (Accession no. AJ242652).
The replicon is transfected into Huh-7 cells using standard methods such as electroporation.
The equipment and materials include, but are not limited to, Huh-7 HCV replicon-containing cells, maintenance media (DMEM (Dulbecco's modified Eagle media) supplemented with 10% FBS, L-glutamine, non-essential amino acids, penicillin (100 units/ml), streptomycin (100 micrograms/ml), and 500 micrograms/ml of Geneticin (G418), screening media (DMEM supplemented with 10% FBS, L-glutamine, non-essential amino acids, penicillin (100 units/ml) and streptomycin (100 micrograms/ml)), 96 well tissue culture plates (flat bottom), 96 well plates (U bottom for drug dilution), Interferon alpha for positive control, fixation reagent (such as methanol: acetone), primary antibody (rabbit anti-NPTII), secondary antibody: Eu—N1 1, and enhancement solution.
HCV replicon-containing cells are rinsed with once PBS once; 2 mls of trypsin are then added. Cells are incubated at 37° C. in a 5% CO2 incubator for 3-5 minutes. 10 mls of complete medium is added to stop the reaction. Cells are blown gently, put into a 15 ml tube, and spun at 1200 rpm for four minutes. The trypsin/medium solution is removed and 5 mls of medium (500 ml DMEM (high glucose)) from BRL catalog #12430-054; 50 mls 10% FBS, 5% Geneticin G418 (50 mg/ml, BRL catalog #10131-035), 5 ml MEM non-essential amino acids (100×BRL #11140-050) and 5 ml pen-strep (BRL #15140-148) is added. The cells and media are mixed carefully
Cells are plated with screening medium (500 ml DMEM (BRL #21063-029), 50 ml FBS (BRL #10082-147) and 5 ml MEM non-essential amino acid (BRL #11140-050) at 6000-7500 cells/100 μl/well of 96 well plate (6-7.5×10^5 cells/10 ml/plate). Plates are placed into 37° C. 5% CO2 incubator overnight.
The following morning, drugs (test compounds or interferon alpha) are diluted in 96 well U bottom plates with media or DMSO/media, depending on the final concentration chosen for screening. Generally for 6 concentrations of each test compounds ranging from 10 micromolar to 0.03 micromolar are applied. 100 μl of the test compound dilution is placed in wells of the 96 well plate containing the HCV replicon cells. Media without drug is added to some wells as a negative controls. DMSO is known to affect cell growth. […]
`COc1ncc(-c2csc(Nc3ccc(Oc4ccc(C#N)cc4)c(C(F)(F)F)c3)n2)cn1` [Cmp 52, 4-(4-(4-(2-methoxypyrimidin-5-yl)thiazol-2-ylamino)-2-(trifluoromethyl)phenoxy)benzonitrile]: the EC50 was under 1 µM. The same measure for `CCc1ccc(Oc2ccc(Nc3nc(-c4cnc(OC)nc4)cs3)cc2C(F)(F)F)cc1` [Cmp 53, N-(4-(4-ethylphenoxy)-3-(trifluoromethyl)phenyl)-4-(2-methoxypyrimidin-5-yl)thiazol-2-amine]: under 1 µM. In the case of `COc1ncc(-c2csc(Nc3ccc(Oc4ccc(Cl)cc4)c(C(F)(F)F)c3)n2)cn1` [Cmp 54, N-(4-(4-chlorophenoxy)-3-(trifluoromethyl)phenyl)-4-(2-methoxypyrimidin-5-yl)thiazol-2-amine], the EC50 is under 1 µM. The same measure for `CCCCCc1nc2cc(Nc3nc(-c4cnc(OC)nc4)cs3)ccc2o1` [Cmp 55, N-(4-(2-methoxypyrimidin-5-yl)thiazol-2-yl)-2-pentylbenzo[d]oxazol-5-amine]: under 1 µM. Then `CCCCCc1nc2cc(Nc3nc(-c4cnc(OC)nc4)c(F)s3)ccc2o1` [Cmp 56, N-(5-fluoro-4-(2-methoxypyrimidin-5-yl)thiazol-2-yl)-2-pentylbenzo[d]oxazol-5-amine], with under 1 µM. Then `CCCCCCCc1nc2cc(Nc3nc(-c4cnc(OC)nc4)c(F)s3)ccc2o1` [Cmp 57, N-(5-fluoro-4-(2-methoxypyrimidin-5-yl)thiazol-2-yl)-2-heptylbenzo[d]oxazol-5-amine], with under 1 µM.

As for `Cc1ccc(Nc2nc(-c3cccnc3)c(F)s2)cc1OCCOc1ccccc1` [Cmp 58, 5-fluoro-N-(4-methyl-3-(2-phenoxyethoxy)phenyl)-4-(pyridin-3-yl)thiazol-2-amine], the EC50 was under 1 µM.

For `Cc1ccc(Nc2nc(-c3cccnc3)c(F)s2)cc1OCC1CCCCC1` [Cmp 59, N-(3-(cyclohexylmethoxy)-4-methylphenyl)-5-fluoro-4-(pyridin-3-yl)thiazol-2-amine], the EC50 was under 1 µM. Regarding `Cc1ccc(Nc2nc(-c3ccc(F)cc3)c(F)s2)cc1OCCOc1ccccc1` [Cmp 60, 5-fluoro-4-(4-fluorophenyl)-N-(4-methyl-3-(2-phenoxyethoxy)phenyl)thiazol-2-amine], the EC50 was under 1 µM. The same measure for `Cc1ccc(Nc2nc(-c3ccc(F)cc3)c(F)s2)cc1OCC1CCCCC1` [Cmp 61, N-(3-(cyclohexylmethoxy)-4-methylphenyl)-5-fluoro-4-(4-fluorophenyl)thiazol-2-amine]: under 1 µM; for `CCCCCCCCOc1cc(Nc2nc(-c3ccc(F)cc3)c(F)s2)ccc1C` [Cmp 62, 5-fluoro-4-(4-fluorophenyl)-N-(4-methyl-3-(octyloxy)phenyl)thiazol-2-amine]: under 1 µM. Then `COc1ncc(-c2nc(Nc3ccc(C)c(OCC4CCCCC4)c3)sc2F)cn1` [Cmp 63, N-(3-(cyclohexylmethoxy)-4-methylphenyl)-5-fluoro-4-(2-methoxypyrimidin-5-yl)thiazol-2-amine], with under 1 µM; and `CCCCCc1nc2cc(Nc3nc(-c4cccnc4)cs3)ccc2o1` [Cmp 64], with under 1 µM; and `CCCCCc1nc2cc(Nc3nc(-c4cccnc4)c(F)s3)ccc2o1` [Cmp 65, N-(5-fluoro-4-(pyridin-3-yl)thiazol-2-yl)-2-pentylbenzo[d]oxazol-5-amine], with under 1 µM. With `CCCCCc1nc2ccc(Nc3nc(-c4cccnc4)cs3)cc2o1` [Cmp 66, 2-pentyl-N-(4-(pyridin-3-yl)thiazol-2-yl)benzo[d]oxazol-6-amine], the EC50 is under 1 µM. Then `CCCCCc1nc2ccc(Nc3nc(-c4cccnc4)c(F)s3)cc2o1` [Cmp 67, N-(5-fluoro-4-(pyridin-3-yl)thiazol-2-yl)-2-pentylbenzo[d]oxazol-6-amine], with under 1 µM; and `CCCCCCCCOc1cc(Nc2nc(-c3cccnc3)cs2)ccc1C(F)(F)F` [Cmp 68, N-(3-(octyloxy)-4-(trifluoromethyl)phenyl)-4-(pyridin-3-yl)thiazol-2-amine], with under 1 µM. Then `CCCCCOc1cc(Nc2nc(-c3cccnc3)cs2)ccc1C(F)(F)F` [Cmp 69, N-(3-(pentyloxy)-4-(trifluoromethyl)phenyl)-4-(pyridin-3-yl)thiazol-2-amine], with under 1 µM; and `Fc1sc(Nc2ccc(Oc3ccccc3)c(C(F)(F)F)c2)nc1-c1cccnc1` [Cmp 70, 5-fluoro-N-(4-phenoxy-3-(trifluoromethyl)phenyl)-4-(pyridin-3-yl)thiazol-2-amine], with under 1 µM. The same measure for `CCCCCCCCOc1cc(Nc2nc(-c3cnc(OC)nc3)cs2)ccc1C(F)(F)F` [Cmp 71, 4-(2-methoxypyrimidin-5-yl)-N-(3-(octyloxy)-4-(trifluoromethyl)phenyl)thiazol-2-amine]: under 1 µM.

`CCCCCOc1cc(Nc2nc(-c3cnc(OC)nc3)cs2)ccc1C(F)(F)F` [Cmp 72, 4-(2-methoxypyrimidin-5-yl)-N-(3-(pentyloxy)-4-(trifluoromethyl)phenyl)thiazol-2-amine]: the EC50 is under 1 µM. As for `Cc1ccc(CCCCCc2ccc(Nc3nc(-c4cccnc4)cs3)cc2C(F)(F)F)cc1` [Cmp 73, 4-(pyridin-3-yl)-N-(4-(5-p-tolylpentyl)-3-(trifluoromethyl)phenyl)thiazol-2-amine], the EC50 was under 1 µM. In the case of `COc1ncc(-c2csc(Nc3ccc(CCCCCc4ccc(C)cc4)c(C(F)(F)F)c3)n2)cn1` [Cmp 74, 4-(2-methoxypyrimidin-5-yl)-N-(4-(5-p-tolylpentyl)-3-(trifluoromethyl)phenyl)thiazol-2-amine], the EC50 was under 1 µM.

Turning to `CCCCCCCCOc1cc(Nc2nc(-c3ccc(F)cc3)cs2)ccc1C(F)(F)F` [Cmp 75, 4-(4-fluorophenyl)-N-(3-(octyloxy)-4-(trifluoromethyl)phenyl)thiazol-2-amine], the EC50 is under 1 µM. The same measure for `CCCCCOc1cc(Nc2nc(-c3ccc(F)cc3)cs2)ccc1C(F)(F)F` [Cmp 76, 4-(4-fluorophenyl)-N-(3-(pentyloxy)-4-(trifluoromethyl)phenyl)thiazol-2-amine]: under 1 µM. The same measure for `CCCCCOc1cc(Nc2nc(-c3cnc(OC)nc3)c(F)s2)ccc1C(F)(F)F` [Cmp 77, 5-fluoro-4-(2-methoxypyrimidin-5-yl)-N-(3-(pentyloxy)-4-(trifluoromethyl)phenyl)thiazol-2-amine]: under 1 µM; for `CCCCCCCCOc1cc(Nc2nc(-c3cccnc3)c(F)s2)ccc1C(F)(F)F` [Cmp 78, 5-fluoro-N-(3-(octyloxy)-4-(trifluoromethyl)phenyl)-4-(pyridin-3-yl)thiazol-2-amine]: under 1 µM; for `CCCCCOc1cc(Nc2nc(-c3cccnc3)c(F)s2)ccc1C(F)(F)F` [Cmp 79, 5-fluoro-N-(3-(pentyloxy)-4-(trifluoromethyl)phenyl)-4-(pyridin-3-yl)thiazol-2-amine]: 1 to 10 µM. As for `CCCCCCCCc1cc(Nc2nc(-c3cccnc3)cs2)cc(C(F)(F)F)c1` [Cmp 80, N-(3-octyl-5-(trifluoromethyl)phenyl)-4-(pyridin-3-yl)thiazol-2-amine], the EC50 was under 1 µM.

With `CC(=O)c1cc(Nc2nc(-c3cccnc3)c(F)s2)ccc1Oc1ccccc1` [Cmp 81, 1-(5-(5-fluoro-4-(pyridin-3-yl)thiazol-2-ylamino)-2-phenoxyphenyl)ethanone], the EC50 was under 1 µM.
